Measured values reported in ChEMBL document CHEMBL1201862, “PubChem BioAssay data set” (2004).
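Dose response: 5 concentrations. Exposure: 48 h. Format: 96-well plates. Endpoint: linear interpolation; highest concentration if not reached. GI50: concentration for 50% inhibition of growth.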 Active and inactive are the calls of the source. No stated cut-off is given here; in the data, active = GI50 up to about 1.1 µM and inactive = higher.

Experiments:
Experiment in all cases: NCI anticancer screen, dose series, 48 h
[1] = tested on: 786-0
[2] = tested on: A498
[3] = tested on: A549
[4] = tested on: ACHN
[5] = tested on: CCRF-CEM
[6] = tested on: COLO 205
[7] = tested on: DU-145
[8] = tested on: EKVX
[9] = tested on: HCT-116
[10] = tested on: HCT-15
[11] = tested on: HOP-62
[12] = tested on: HOP-92
[13] = tested on: HT-29
[14] = tested on: Hs-578T
[15] = tested on: IGROV-1
[16] = tested on: K562
[17] = tested on: KM12
[18] = tested on: LOX IMVI
[19] = tested on: M14
[20] = tested on: MCF7
[21] = tested on: MDA-MB-231
[22] = tested on: MDA-MB-435
[23] = tested on: MDA-N
[24] = tested on: MOLT-4
[25] = tested on: Malme-3M
[26] = tested on: NCI-H226
[27] = tested on: NCI-H23
[28] = tested on: NCI/ADR-RES
[29] = tested on: OVCAR-3
[30] = tested on: OVCAR-4
[31] = tested on: OVCAR-5
[32] = tested on: OVCAR-8
[33] = tested on: PC-3
[34] = tested on: RPMI-8226
[35] = tested on: SF-268
[36] = tested on: SF-295
[37] = tested on: SK-MEL-28
[38] = tested on: SK-MEL-2
[39] = tested on: SK-MEL-5
[40] = tested on: SK-OV-3
[41] = tested on: SN12C
[42] = tested on: SNB-19
[43] = tested on: SNB-75
[44] = tested on: SR
[45] = tested on: SW-620
[46] = tested on: TK-10
[47] = tested on: U-251
[48] = tested on: UACC-257
[49] = tested on: UACC-62
[50] = tested on: UO-31
[51] = tested on: HCC 2998
[52] = tested on: HL-60
[53] = tested on: NCI-H460
[54] = tested on: NCI-H522
[55] = tested on: RXF 393
[56] = tested on: SF-539
[57] = tested on: T47D

With `C=CCC(NCc1ccccc1)[C@H](OCc1ccccc1)[C@@H]1COC(C)(C)O1` (stereo partly specified) the GI50 [1] was 30.4 µM (inactive), the GI50 [2] was 45.6 µM (inactive) and the GI50 [3] was 39 µM (inactive). The GI50 [4] was 42.6 µM (inactive), the GI50 [5] was 28.1 µM (inactive) and the GI50 [6] was 14.5 µM (inactive). For the same molecule, the GI50 [7] was 97.3 µM (inactive), the GI50 [8] was 32.5 µM (inactive) and the GI50 [9] was 23.7 µM (inactive). For the same molecule, the GI50 [10] was 23.7 µM, the GI50 [11] was 55.1 µM (inactive) and the GI50 [12] was 12.7 µM (inactive). The GI50 [13] was 11.7 µM (inactive), the GI50 [14] was 24.7 µM (inactive) and the GI50 [15] was 35.8 µM (inactive). For the same molecule, the GI50 [16] was 23.7 µM (inactive), the GI50 [17] was 29.8 µM (inactive) and the GI50 [18] was 26 µM (inactive). The GI50 [19] was 36.2 µM (inactive), the GI50 [20] was 29.4 µM (inactive) and the GI50 [21] was > 100 µM (inactive). For the same molecule, the GI50 [22] was 36.1 µM (inactive), the GI50 [23] was 31.8 µM (inactive) and the GI50 [24] was 23.7 µM (inactive). For the same molecule, the GI50 [25] was 22.6 µM (inactive), the GI50 [26] was 15.6 µM (inactive) and the GI50 [27] was 28.3 µM (inactive). For the same molecule, the GI50 [28] was 46.8 µM (inactive), the GI50 [29] was 44.9 µM (inactive) and the GI50 [30] was 44.7 µM (inactive). The GI50 [31] was 46.2 µM (inactive), the GI50 [32] was 35.2 µM (inactive) and the GI50 [33] was 31.9 µM (inactive). For the same molecule, the GI50 [34] was 18.5 µM (inactive), the GI50 [35] was 44.9 µM (inactive) and the GI50 [36] was 27.8 µM (inactive). The GI50 [37] was 47.1 µM (inactive), the GI50 [38] was 19.6 µM (inactive) and the GI50 [39] was 23 µM (inactive). For the same molecule, the GI50 [40] was 79.3 µM (inactive), the GI50 [41] was 43.4 µM (inactive) and the GI50 [42] was 72.8 µM (inactive). For the same molecule, the GI50 [43] was 49 µM (inactive), the GI50 [44] was 21.1 µM (inactive) and the GI50 [45] was 41.9 µM (inactive). The GI50 [46] was 23.8 µM (inactive), the GI50 [47] was 37.6 µM (inactive) and the GI50 [48] was 22.9 µM (inactive). The GI50 [49] was 40.6 µM (inactive) and the GI50 [50] was 22.9 µM (inactive).

`Nc1nc(O)nc2sc3c(c12)CCCC3` was tested, and the GI50 [1] was > 100 µM (inactive), the GI50 [3] was 84.3 µM (inactive) and the GI50 [4] was > 100 µM (inactive). The GI50 [5] was 41.3 µM (inactive), the GI50 [6] was 39.5 µM (inactive) and the GI50 [7] was > 100 µM (inactive). For the same molecule, the GI50 [8] was 7.48 µM (inactive), the GI50 [51] was 82 µM (inactive) and the GI50 [9] was 57 µM (inactive). For the same molecule, the GI50 [10] was > 100 µM, the GI50 [52] was 88.5 µM (inactive) and the GI50 [11] was 98.4 µM (inactive). For the same molecule, the GI50 [12] was > 100 µM (inactive), the GI50 [13] was 68.2 µM (inactive) and the GI50 [14] was 23.6 µM (inactive). The GI50 [15] was 87.7 µM (inactive), the GI50 [16] was 61.4 µM (inactive) and the GI50 [17] was 33.3 µM (inactive). The GI50 [19] was 41.1 µM (inactive), the GI50 [20] was 44.5 µM (inactive) and the GI50 [21] was 98.4 µM (inactive). For the same molecule, the GI50 [24] was 99.3 µM (inactive), the GI50 [25] was 37.8 µM (inactive) and the GI50 [26] was 4.57 µM (inactive). The GI50 [27] was > 100 µM (inactive), the GI50 [53] was 56.4 µM (inactive) and the GI50 [54] was 46.6 µM (inactive). The GI50 [28] was > 100 µM (inactive), the GI50 [30] was 38.5 µM (inactive) and the GI50 [31] was > 100 µM (inactive). The GI50 [32] was > 100 µM (inactive), the GI50 [33] was > 100 µM (inactive) and the GI50 [34] was 38.5 µM (inactive). The GI50 [55] was > 100 µM (inactive), the GI50 [35] was 90.4 µM (inactive) and the GI50 [56] was 42.8 µM (inactive). For the same molecule, the GI50 [37] was 25.2 µM (inactive), the GI50 [38] was > 100 µM (inactive) and the GI50 [39] was > 100 µM (inactive). For the same molecule, the GI50 [40] was > 100 µM (inactive), the GI50 [41] was 73.3 µM (inactive) and the GI50 [42] was 55.8 µM (inactive). The GI50 [43] was 19.7 µM (inactive), the GI50 [44] was 51.5 µM (inactive) and the GI50 [45] was > 100 µM (inactive). For the same molecule, the GI50 [57] was 64.9 µM (inactive), the GI50 [46] was 92 µM (inactive) and the GI50 [47] was > 100 µM (inactive). For the same molecule, the GI50 [48] was 63.1 µM (inactive), the GI50 [49] was 32.1 µM (inactive) and the GI50 [50] was 81.7 µM (inactive).

`C=CCN(CCN(CC=C)S(=O)(=O)c1ccc(C)cc1)S(=O)(=O)c1ccc(C)cc1` was tested, and the GI50 [2] was > 100 µM (inactive), the GI50 [3] was > 100 µM (inactive) and the GI50 [4] was > 100 µM (inactive). The GI50 [5] was > 100 µM (inactive), the GI50 [6] was > 100 µM (inactive) and the GI50 [7] was > 100 µM (inactive). For the same molecule, the GI50 [51] was > 100 µM (inactive), the GI50 [9] was > 100 µM (inactive) and the GI50 [10] was > 100 µM. The GI50 [12] was 95.9 µM (inactive), the GI50 [13] was > 100 µM (inactive) and the GI50 [14] was > 100 µM (inactive). For the same molecule, the GI50 [16] was > 100 µM (inactive), the GI50 [17] was > 100 µM (inactive) and the GI50 [18] was 55.1 µM (inactive). The GI50 [19] was > 100 µM (inactive), the GI50 [20] was > 100 µM (inactive) and the GI50 [21] was > 100 µM (inactive). The GI50 [22] was > 100 µM (inactive), the GI50 [23] was > 100 µM (inactive) and the GI50 [24] was > 100 µM (inactive). For the same molecule, the GI50 [26] was > 100 µM (inactive), the GI50 [27] was > 100 µM (inactive) and the GI50 [53] was > 100 µM (inactive). For the same molecule, the GI50 [54] was > 100 µM (inactive), the GI50 [28] was > 100 µM (inactive) and the GI50 [29] was > 100 µM (inactive). The GI50 [30] was > 100 µM (inactive), the GI50 [32] was > 100 µM (inactive) and the GI50 [33] was > 100 µM (inactive). The GI50 [55] was > 100 µM (inactive), the GI50 [35] was > 100 µM (inactive) and the GI50 [36] was > 100 µM (inactive). The GI50 [37] was > 100 µM (inactive), the GI50 [39] was > 100 µM (inactive) and the GI50 [41] was > 100 µM (inactive). For the same molecule, the GI50 [42] was > 100 µM (inactive), the GI50 [43] was > 100 µM (inactive) and the GI50 [44] was > 100 µM (inactive). For the same molecule, the GI50 [45] was > 100 µM (inactive), the GI50 [57] was > 100 µM (inactive) and the GI50 [46] was > 100 µM (inactive). The GI50 [47] was > 100 µM (inactive), the GI50 [48] was > 100 µM (inactive) and the GI50 [50] was > 100 µM (inactive).
